The results in this text go back to ChEMBL document CHEMBL1148418, “BMS-201620: a selective beta 3 agonist” (Bioorg Med Chem Lett, 2004).

One may read the ED50 as the dose that gives a 50% effect, or the effect in half of the subjects.

One experiment is filed under the species Cavia porcellus. The experiment can be described thus: Intrinsic activity was determined using spontaneously beating guinea pig atria by measuring contraction acceleration relative to isoproterenol response. Format: functional.
Details: not given
In turn, `COc1ccc([C@](C)(NC[C@H](O)c2ccc(O)c(NS(C)(=O)=O)c2)C(=O)Nc2cc(OC)c(OC)c(OC)c2)cc1` returned an IA of 66%.
`COc1ccc([C@](C)(NC[C@H](O)c2ccc(O)c(NS(C)(=O)=O)c2)C(=O)Nc2cccc(C)c2)cc1` yielded an IA of 73%.
Molecule `COc1ccc([C@](C)(NC[C@H](O)c2ccc(O)c(NS(C)(=O)=O)c2)C(=O)Nc2ccc(OCCN(C)C)cc2)cc1` had an IA of 92%.
For `COc1ccc([C@](C)(NC[C@H](O)c2ccc(O)c(NS(C)(=O)=O)c2)C(=O)Nc2cccc(Cl)c2)cc1`, the IA is reported as 50%.
Regarding `COc1ccc([C@](C)(NC[C@H](O)c2ccc(O)c(NS(C)(=O)=O)c2)C(=O)Nc2ccc(OCC(=O)O)cc2)cc1`, the IA is reported as 100%.
For the molecule `COc1ccc([C@](C)(NC[C@H](O)c2ccc(O)c(NS(C)(=O)=O)c2)C(=O)Nc2cccc(OC)c2)cc1`, the IA was 85%.
For `COc1ccc([C@](C)(NC[C@H](O)c2ccc(O)c(NS(C)(=O)=O)c2)C(=O)Nc2ccc(Cl)cc2)cc1`, the IA is reported as 62%.
Take `COc1ccc([C@H](NC[C@H](O)c2ccc(O)c(NS(C)(=O)=O)c2)C(=O)Nc2ccccc2)cc1` (stereo in doubt; 16): the IA is given as 95%.
Molecule `COc1ccc([C@](C)(NC[C@H](O)c2ccc(O)c(NS(C)(=O)=O)c2)C(=O)Nc2cc(Cl)c(Cl)c(Cl)c2)cc1` showed an IA of 15%.
The same measure, in the same setting: under `COc1ccc([C@](C)(NC[C@H](O)c2ccc(O)c(NS(C)(=O)=O)c2)C(=O)Nc2ccccc2OC)cc1` stands 60%; under `COc1ccc([C@](C)(NC[C@H](O)c2ccc(O)c(NS(C)(=O)=O)c2)C(=O)Nc2cccc(Br)c2)cc1`, 50%; under `COc1ccc([C@](C)(NC[C@H](O)c2ccc(O)c(NS(C)(=O)=O)c2)C(=O)Nc2cc(Cl)cc(Cl)c2)cc1`, 13%.
Molecule `COc1ccc([C@H](NC[C@H](O)c2ccc(O)c(NS(C)(=O)=O)c2)C(=O)Nc2ccc3c(c2)OCO3)cc1` (stereo in doubt; 17) returned an IA of 93%.
With `COc1ccc([C@](C)(NC[C@H](O)c2ccc(O)c(NS(C)(=O)=O)c2)C(=O)Nc2cccc(O)c2)cc1`, the IA was determined as 96%.
Consider `COc1ccc([C@](C)(NC[C@H](O)c2ccc(O)c(NS(C)(=O)=O)c2)C(=O)Nc2cccc(CN)c2)cc1`, for which the IA is 91%.
Consider `COc1ccc([C@](C)(NC[C@H](O)c2ccc(O)c(NS(C)(=O)=O)c2)C(=O)Nc2ccccc2C)cc1`, for which the IA is 83%.
With `CCOP(=O)(Cc1ccc(NC(=O)[C@@](C)(NC[C@H](O)c2ccc(O)c(NS(C)(=O)=O)c2)c2ccc(OC)cc2)cc1)OCC`, the IA amounted to 55%.
As for `COc1ccc([C@](C)(NC[C@H](O)c2ccc(O)c(NS(C)(=O)=O)c2)C(=O)Nc2cccc(OCC(=O)O)c2)cc1`, the IA was found to be 87%.
In the case of `COc1ccc([C@](C)(NC[C@H](O)c2ccc(O)c(NS(C)(=O)=O)c2)C(=O)Nc2ccc(C)cc2)cc1`, the IA came to 90%.
Still for that read-out and setting: then `COc1ccc([C@](C)(NC[C@H](O)c2ccc(O)c(NS(C)(=O)=O)c2)C(=O)Nc2ccc(Cl)c(Cl)c2)cc1`, with 8%; and `COc1ccc([C@](C)(NC[C@H](O)c2ccc(O)c(NS(C)(=O)=O)c2)C(=O)Nc2ccc(Cl)cc2F)cc1`, with 43%.
`COc1ccc([C@](C)(NC[C@H](O)c2ccc(O)c(NS(C)(=O)=O)c2)C(=O)Nc2ccc(O)cc2)cc1` returned an IA of 90%.
Consider `COc1ccc([C@](C)(NC[C@H](O)c2ccc(O)c(NS(C)(=O)=O)c2)C(=O)Nc2cccc(OCCN(C)C)c2)cc1`, for which the IA was 85%.
Same read-out and setting: then `COc1ccc([C@](C)(NC[C@H](O)c2ccc(O)c(NS(C)(=O)=O)c2)C(=O)Nc2ccc(OC)c(OC)c2)cc1`, with 89%; and `COc1ccc(NC(=O)[C@@](C)(NC[C@H](O)c2ccc(O)c(NS(C)(=O)=O)c2)c2ccc(OC)cc2)cc1`, with 85%; and `COc1ccc([C@](C)(NC[C@H](O)c2ccc(O)c(NS(C)(=O)=O)c2)C(=O)Nc2ccc3sc(C)nc3c2)cc1`, with 70%.

The subject of the next experiment is Monkey. As to the kind of experiment: Compound was tested for in vivo lipolysis in african green monkeys after iv administration. Format: functional. The settings on record: Cercopithecidae, in Primates.
For the molecule `COc1ccc([C@](C)(NC[C@H](O)c2ccc(O)c(NS(C)(=O)=O)c2)C(=O)Nc2ccc(Cl)cc2)cc1`, the ED50 worked out at 0.07 mg/kg.
The same measure, in the same setting: then `COc1ccc([C@H](NC[C@H](O)c2ccc(O)c(NS(C)(=O)=O)c2)C(=O)Nc2ccc3c(c2)OCO3)cc1` (stereo in doubt; 17), with 0.08 mg/kg; and `CCOP(=O)(Cc1ccc(NC(=O)[C@@](C)(NC[C@H](O)c2ccc(O)c(NS(C)(=O)=O)c2)c2ccc(OC)cc2)cc1)OCC`, with 0.1 mg/kg.
